Results taken from patent publication US10195195B2, “Selective histamine H4 receptor antagonists for the treatment of vestibular disorders” (INSERM (Institut National de la Sante de la Recherche …, priority 2008, dated 2019).
“Also recorded” adds a separate entry of the source. Like-named read-outs stand apart in the source and are kept apart here. Blank lines part the entries; values can stand above or below the compound they belong to.

What was measured:
[1] = test system: vestibular ganglion neurons; assay: Patch-clamp (current-clamp) recording of depolarization-induced firing volley and membrane potential in cultured vestibular ganglion neurons; format: cell-based, Wistar rats; settings: for IC50: cultured rat vestibular neurons; for inhibition at 0.1 µM: 100 nM (0.1 μM); for variation of membrane potentials (qualitative): FIG. 4, high concentrations; for reversibility of the firing inhibition during rinse with control medium: perfusion of control medium after drug; for depolarization of the neurons: 5 mM
Procedure: Cell culture: Vestibular ganglion neurons were explanted aseptically from 2 to 6 days-old Wistar rats (Centre d'Elevage Janvier, Le Genest-Saint-Isle, France). All procedures were carried out in accordance to the French/European Communities Council Directive 86/609/EEC. The brainstem was hemi-sectioned and the eighth nerve was followed up to the level of the otocyst and cut just rostral to it.
The vestibular ganglia were excised, placed in Leibovitz medium (L15, Invitrogen, Cergy Pontoise, France), and dissociated by enzymatically (collagenase 0.75 mg/ml, dispase 1 mg/ml and dnase 0.75 mg/ml, 15 min at 25° C.). Enzymes were washed with Tyrode solution without Ca^2+ and Mg^2+, and the ganglion neurons were gently dissociated in culture medium with a pipette. The neurons were plated onto culture dishes previously coated with 5 μg/ml poly-L-ornithine, 10 μg/ml laminin and subsequently filled with 0.5 ml of a 1:1 mixture of Dulbecco's modified eagle medium and Ham's F-12 medium (Invitrogen) supplemented with 2% N2 nutrient glucose (5 g/l), glutamine (1.5 mM), sodium bicarbonate (1.1 g/l), HEPES buffer (15 mM, pH 7.4), AraC 2 μM, brain-derived neurotrophic factor 10 μg/ml and 1% penicillin/streptomycin. The low density cultures were then maintained at 37° C. in 5% CO2 for 7 to 8 days prior patch-clamp experiments.
Patch-clamp recordings: Whole-cell (current-clamp configuration) recording of responses were obtained using an Axopatch 200B amplifier (Axon Instruments; Molecular Devices Corp., Sunnyvale, Calif., USA). The extracellular solution contained (in mM): NaCl 135, HEPES 10, glucose 10, MgCl2 1, KCl 5, and CaCl2 4, pH 7.35 (with NaOH). Recording pipettes (2-3 MΩ) were drawn from microhematocrit tubes (Modulohm I/S Herlev, Denmark) and filled with the following solution (in mM): KCl 135, HEPES 10,glucose 10, NaCl5, EGTA 5, Mg-ATP3, GTP-Na 1, pH 7.35 (with KOH). The osmolarity of all solutions was set to 300 mOsm/I^−1. Experimental parameters and data acquisition were controlled with a PC computer and a Tecmar Labmaster analogue interface (Axon instruments, CA). Voltage transients were recorded from neurons presenting resting potentials lying between −45 and −65 mV. Trains of action potentials (APs) were elicited using 1 s, 200 pA depolarizing pulses applied every 6.5 s. Current signals were filtered at 10 KHz, digitized and stored using pCLAMP software (v 10.2, Axon instruments).
Drug application : The control and test solutions were applied using a multiple capillary perfusion system (flow rate 500 μl/min). After each application of the tested drug, the cells were washed with control buffer.
Data analysis and statistical methods : The results are expressed as means±S.E.M. The number of sample size (n) given is the number of neurons tested. Variations of the membrane potential and the number of APs were analysed using pCLAMP software (v10.2, Axon instruments). Drug concentration-effect relationships were fitted with a Hill equation of the form I(x)=A*xn/(IC50n+xn).

human H3 receptor = biological target: T1, human H3 receptor (Homo sapiens, UniProt Q9Y5N1); settings: radioligand, transfected cell membranes; cited from earlier work
T1 construct: expressed in transfected cells; host or cells: SK-N-MC or HEK293 T
T1 sequence (Q9Y5N1 whole entry): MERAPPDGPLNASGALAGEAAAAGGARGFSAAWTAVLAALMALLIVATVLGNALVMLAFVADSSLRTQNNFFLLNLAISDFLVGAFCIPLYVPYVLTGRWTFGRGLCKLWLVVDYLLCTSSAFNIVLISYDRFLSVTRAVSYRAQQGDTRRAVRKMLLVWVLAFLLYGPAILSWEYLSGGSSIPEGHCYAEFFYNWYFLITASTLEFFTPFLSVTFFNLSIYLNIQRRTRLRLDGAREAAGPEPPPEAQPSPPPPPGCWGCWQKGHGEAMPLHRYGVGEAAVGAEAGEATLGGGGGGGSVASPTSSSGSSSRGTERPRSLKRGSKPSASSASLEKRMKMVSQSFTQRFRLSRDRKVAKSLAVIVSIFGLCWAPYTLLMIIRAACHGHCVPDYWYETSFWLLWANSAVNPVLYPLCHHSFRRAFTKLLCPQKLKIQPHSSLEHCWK

[2] = test system: peripheral vestibular receptors isolated from axolotl; settings: cited from earlier work
[3] = Neuron, dose-response fitted with Hill equation, read-out: IC50 of inhibition of the firing volley induced by standard depolarization
[4] = Rattus norvegicus, Neuron, tonic discharge

- IC50 [1, 3]: 10 µM
SMILES: CN1CCN(C(=O)c2cc3cc(Cl)ccc3[nH]2)CC1 [JNJ 7777120, 1-[(5-chloro-1H-indol-2-yl)carbonyl]-4-methylpiperazine]
- inhibition at 0.1 µM [1, 4]: 3%
- inhibition at 1 µM [1, 4]: 29%
- inhibition at 10 µM [1, 4]: 41%
- membrane depolarisation ([1]; high concentration application (1 mM)): did not induce membrane depolarisation

SMILES: CN1CCN(C(=O)c2nc3cc(Cl)ccc3[nH]2)CC1 [VUF 6002, 1-[(5-chloro-1H-benzimidazol-2-yl)carbonyl]-4-methylpiperazine]
- action potentials intrinsic properties (spike amplitude, time to peak, rise and decay time constants) [1]: not affected
- membrane hyperpolarization ([1]; 100 μM): about −3 mV
- inhibition of the firing ([1]; 100 μM, tonic discharge): 90%
- effect on firing, phasic discharge pattern ([1]; 1 mM, neurons with phasic discharge, n=6): completely abolished the firing
- variation of membrane potentials (qualitative) [1]: did not induce membrane variations
- IC50 [1, 3]: 5.8 µM
- inhibition at 0.1 µM [1, 4]: 20%
- inhibition at 1 µM [1, 4]: 37%
- inhibition at 10 µM [1, 4]: 55%
- inhibition at 100 µM ([1]; Rattus norvegicus, Neuron, 100 μM, tonic discharge): 91%
- concentration of maximum inhibition of the firing ([1]; dose-response between 1 nM and 1 mM): around 100 μM
- reversibility of the firing inhibition during rinse with control medium [1]: reversed during rinse with control medium; also recorded: totally reversed

SMILES: CNCCc1cnc[nH]1 [[^3H]N-a-methyl histamine]
- Kd (human H3 receptor): 0.001 µM

- IC50 ([1]; dose-response relationship, read-out: IC50 of inhibition of the discharge volley): 2200 µM
SMILES: CNCCc1ccccn1.Cl.Cl [betahistine, betahistine dihydrochloride]
- effect on membrane potential ([1]; 2 mM application): not affected
- depolarization of the neurons ([1]; dihydrochloride): about 15 mV
- depolarization of the neurons ([1]; listed as BH, dihydrochloride): 14.3±4.7 mV
- variation of membrane potentials (qualitative) ([1]; dihydrochloride): pronounced depolarisation of the neurons
- variation of membrane potentials (qualitative) ([1]; listed as betahistidine, dihydrochloride): strong depolarisations at high concentrations
- reversibility of the firing inhibition during rinse with control medium ([1]; dihydrochloride): rapidly reversed during rinse with control medium
- reversibility of the firing inhibition during rinse with control medium ([1]; listed as BH, dihydrochloride): rapidly abolished
- concentration of maximum inhibition of the discharge volley ([1]; standard depolarization stimulation): around 10 mM
- concentration of maximum effect on afferent discharge [2]: around 10 mM
- IC50 ([2]; read-out: IC50 of inhibition of the afferent discharge): 800 µM

SMILES: O=C(O)/C=C\C(=O)O.S=C(NC1CCCCC1)N1CCC(c2c[nH]cn2)CC1 [thioperamide, N-cyclohexyl-4-(1H-imidazol-4-yl)-1-piperidinecarbothioamide maleate]
- membrane depolarisation at low concentration ([1]; 0.01 to 10 μM): without depolarizing the neurons
- variation of membrane potentials (qualitative) ([1]; maleate): strong depolarisations at high concentrations; also recorded: strong membrane depolarisations; also recorded: pronounced depolarisation of the neurons
- IC50 [1, 3]: 100 µM
- inhibition at 0.1 µM [1, 4]: 10%
- inhibition at 10 µM [1, 4]: 24%
- inhibition at 500 µM ([1]; Rattus norvegicus, Neuron, 500 μM, read-out: inhibition of the firing (blocked activity)): 87%
- reversibility of the firing inhibition during rinse with control medium [1]: only slightly reversible
